# In ChEMBL document CHEMBL5653615 (J Biol Chem, 2013):
# Columns and labels:
# [1] = target: T1, Inhibitor of nuclear factor kappa-B kinase subunit beta (Homo sapiens) (UniProt O14920); assay: Inhibition of human IKKb at 500 nM by HotSpot assay relative to control
# T1 sequence (whole entry): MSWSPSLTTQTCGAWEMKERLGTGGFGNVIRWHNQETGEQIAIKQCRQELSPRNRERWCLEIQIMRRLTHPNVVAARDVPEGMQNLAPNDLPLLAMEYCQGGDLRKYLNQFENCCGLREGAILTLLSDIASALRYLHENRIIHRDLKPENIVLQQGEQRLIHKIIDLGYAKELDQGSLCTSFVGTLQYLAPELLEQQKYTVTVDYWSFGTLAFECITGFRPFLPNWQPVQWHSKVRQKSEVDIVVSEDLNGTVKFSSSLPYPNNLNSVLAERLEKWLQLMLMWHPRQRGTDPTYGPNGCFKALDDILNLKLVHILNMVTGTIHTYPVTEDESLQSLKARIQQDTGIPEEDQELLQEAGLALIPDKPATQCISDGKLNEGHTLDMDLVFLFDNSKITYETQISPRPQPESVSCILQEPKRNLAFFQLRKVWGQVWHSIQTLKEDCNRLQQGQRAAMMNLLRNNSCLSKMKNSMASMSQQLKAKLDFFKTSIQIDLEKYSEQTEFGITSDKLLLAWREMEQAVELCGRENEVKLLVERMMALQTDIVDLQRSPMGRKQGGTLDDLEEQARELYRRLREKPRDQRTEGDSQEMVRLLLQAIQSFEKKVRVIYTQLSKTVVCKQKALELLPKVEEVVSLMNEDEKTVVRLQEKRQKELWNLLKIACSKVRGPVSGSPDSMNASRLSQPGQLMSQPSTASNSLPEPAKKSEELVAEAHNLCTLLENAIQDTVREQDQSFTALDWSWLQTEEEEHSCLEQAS
# [2] = target: Calcium/calmodulin-dependent protein kinase type 1 (Homo sapiens) (UniProt Q14012); assay: Inhibition of human CAMK1a at 1.82 nM by HotSpot assay relative to control
# [3] = target: T2, Serine/threonine-protein kinase DCLK2 (Homo sapiens) (UniProt Q8N568); assay: Inhibition of human DCAMKL2 at 1.82 nM by HotSpot assay relative to control
# T2 sequence (whole entry): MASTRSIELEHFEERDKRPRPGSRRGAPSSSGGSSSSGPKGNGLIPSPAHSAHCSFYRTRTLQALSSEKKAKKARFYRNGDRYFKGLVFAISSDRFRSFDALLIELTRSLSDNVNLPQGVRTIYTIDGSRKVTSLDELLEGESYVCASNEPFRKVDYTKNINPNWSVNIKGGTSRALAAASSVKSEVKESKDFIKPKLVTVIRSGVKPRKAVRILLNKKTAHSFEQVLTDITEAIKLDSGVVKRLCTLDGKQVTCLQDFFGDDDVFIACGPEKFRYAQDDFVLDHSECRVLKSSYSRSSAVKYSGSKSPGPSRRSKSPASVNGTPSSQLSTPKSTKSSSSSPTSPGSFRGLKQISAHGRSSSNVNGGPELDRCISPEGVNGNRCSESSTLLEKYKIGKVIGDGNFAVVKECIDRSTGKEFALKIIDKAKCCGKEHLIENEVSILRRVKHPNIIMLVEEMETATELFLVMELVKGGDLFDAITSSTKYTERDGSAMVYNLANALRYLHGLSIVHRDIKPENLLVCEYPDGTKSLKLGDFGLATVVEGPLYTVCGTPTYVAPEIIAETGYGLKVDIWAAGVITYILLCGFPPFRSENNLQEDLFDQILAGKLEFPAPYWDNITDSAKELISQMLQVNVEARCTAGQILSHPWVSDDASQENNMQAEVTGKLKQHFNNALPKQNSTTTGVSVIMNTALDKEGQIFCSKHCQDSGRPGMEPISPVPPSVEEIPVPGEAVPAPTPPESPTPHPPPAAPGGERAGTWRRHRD
# [4] = target: G protein-coupled receptor kinase 5 (Homo sapiens) (UniProt P34947); assay: Inhibition of human GRK5 at 1.82 nM by HotSpot assay relative to control
# [5] = target: Mitogen-activated protein kinase kinase kinase 11 (Homo sapiens) (UniProt Q16584); assay: Inhibition of human MAP3K11 at 1.82 nM by HotSpot assay relative to control
# [6] = target: Serine/threonine-protein kinase MRCK beta (Homo sapiens) (UniProt Q9Y5S2); assay: Inhibition of human CDC42BPB at 1.82 nM by HotSpot assay relative to control
# [7] = target: Serine/threonine-protein kinase WNK3 (Homo sapiens) (UniProt Q9BYP7); assay: Inhibition of human WNK3 at 1.82 nM by HotSpot assay relative to control
# [8] = target: T3, Inhibitor of nuclear factor kappa-B kinase subunit epsilon (Homo sapiens) (UniProt Q14164); details: dose 1.82 nM
# T3 sequence (whole entry): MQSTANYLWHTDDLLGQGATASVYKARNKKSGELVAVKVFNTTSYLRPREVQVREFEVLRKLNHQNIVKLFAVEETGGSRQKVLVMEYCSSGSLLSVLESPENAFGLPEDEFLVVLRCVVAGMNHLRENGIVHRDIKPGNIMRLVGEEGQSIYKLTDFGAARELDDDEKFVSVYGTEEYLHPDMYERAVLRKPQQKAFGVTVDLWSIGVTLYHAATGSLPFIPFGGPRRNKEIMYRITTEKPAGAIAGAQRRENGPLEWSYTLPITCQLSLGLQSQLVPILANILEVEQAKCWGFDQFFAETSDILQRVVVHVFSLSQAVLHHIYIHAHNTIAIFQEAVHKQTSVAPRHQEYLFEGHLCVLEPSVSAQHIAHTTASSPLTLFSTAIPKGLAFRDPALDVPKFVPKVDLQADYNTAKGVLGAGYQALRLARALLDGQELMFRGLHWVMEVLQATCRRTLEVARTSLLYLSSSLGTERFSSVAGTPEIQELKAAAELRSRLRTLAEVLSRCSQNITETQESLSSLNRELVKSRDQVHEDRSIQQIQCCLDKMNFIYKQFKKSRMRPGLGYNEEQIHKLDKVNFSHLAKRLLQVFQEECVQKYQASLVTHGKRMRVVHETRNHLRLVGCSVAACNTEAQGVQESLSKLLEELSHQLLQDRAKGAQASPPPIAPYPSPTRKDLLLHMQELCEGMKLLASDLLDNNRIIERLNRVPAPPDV
# Description: Inhibition of human IKKe at 1.82 nM by HotSpot assay relative to control
# Mitogen-activated protein kinase kinase kinase 11 (Homo sapiens), sequence (Q16584 whole entry, looked up): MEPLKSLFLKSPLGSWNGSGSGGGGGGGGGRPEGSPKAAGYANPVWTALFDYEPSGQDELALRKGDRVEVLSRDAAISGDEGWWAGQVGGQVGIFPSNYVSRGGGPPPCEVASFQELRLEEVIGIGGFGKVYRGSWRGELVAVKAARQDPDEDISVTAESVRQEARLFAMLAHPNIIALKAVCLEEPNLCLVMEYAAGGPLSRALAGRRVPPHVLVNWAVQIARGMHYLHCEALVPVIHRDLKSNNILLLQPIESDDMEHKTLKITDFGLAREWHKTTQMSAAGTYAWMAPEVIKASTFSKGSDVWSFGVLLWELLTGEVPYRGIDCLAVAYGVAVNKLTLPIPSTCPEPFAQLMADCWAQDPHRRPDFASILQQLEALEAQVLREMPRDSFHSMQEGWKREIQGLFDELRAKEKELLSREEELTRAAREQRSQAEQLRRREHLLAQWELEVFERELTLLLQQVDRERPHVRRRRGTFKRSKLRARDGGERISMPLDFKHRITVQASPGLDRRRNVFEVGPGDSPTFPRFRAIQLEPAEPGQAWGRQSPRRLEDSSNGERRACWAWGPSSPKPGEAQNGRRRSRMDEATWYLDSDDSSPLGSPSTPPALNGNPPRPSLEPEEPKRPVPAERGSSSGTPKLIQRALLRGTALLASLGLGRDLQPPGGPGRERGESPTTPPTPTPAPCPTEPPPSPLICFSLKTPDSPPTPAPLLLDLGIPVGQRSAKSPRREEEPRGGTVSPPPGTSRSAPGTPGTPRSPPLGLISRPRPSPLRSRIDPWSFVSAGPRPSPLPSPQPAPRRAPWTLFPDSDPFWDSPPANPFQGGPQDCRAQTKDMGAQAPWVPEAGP
# Serine/threonine-protein kinase MRCK beta (Homo sapiens), sequence (Q9Y5S2 whole entry): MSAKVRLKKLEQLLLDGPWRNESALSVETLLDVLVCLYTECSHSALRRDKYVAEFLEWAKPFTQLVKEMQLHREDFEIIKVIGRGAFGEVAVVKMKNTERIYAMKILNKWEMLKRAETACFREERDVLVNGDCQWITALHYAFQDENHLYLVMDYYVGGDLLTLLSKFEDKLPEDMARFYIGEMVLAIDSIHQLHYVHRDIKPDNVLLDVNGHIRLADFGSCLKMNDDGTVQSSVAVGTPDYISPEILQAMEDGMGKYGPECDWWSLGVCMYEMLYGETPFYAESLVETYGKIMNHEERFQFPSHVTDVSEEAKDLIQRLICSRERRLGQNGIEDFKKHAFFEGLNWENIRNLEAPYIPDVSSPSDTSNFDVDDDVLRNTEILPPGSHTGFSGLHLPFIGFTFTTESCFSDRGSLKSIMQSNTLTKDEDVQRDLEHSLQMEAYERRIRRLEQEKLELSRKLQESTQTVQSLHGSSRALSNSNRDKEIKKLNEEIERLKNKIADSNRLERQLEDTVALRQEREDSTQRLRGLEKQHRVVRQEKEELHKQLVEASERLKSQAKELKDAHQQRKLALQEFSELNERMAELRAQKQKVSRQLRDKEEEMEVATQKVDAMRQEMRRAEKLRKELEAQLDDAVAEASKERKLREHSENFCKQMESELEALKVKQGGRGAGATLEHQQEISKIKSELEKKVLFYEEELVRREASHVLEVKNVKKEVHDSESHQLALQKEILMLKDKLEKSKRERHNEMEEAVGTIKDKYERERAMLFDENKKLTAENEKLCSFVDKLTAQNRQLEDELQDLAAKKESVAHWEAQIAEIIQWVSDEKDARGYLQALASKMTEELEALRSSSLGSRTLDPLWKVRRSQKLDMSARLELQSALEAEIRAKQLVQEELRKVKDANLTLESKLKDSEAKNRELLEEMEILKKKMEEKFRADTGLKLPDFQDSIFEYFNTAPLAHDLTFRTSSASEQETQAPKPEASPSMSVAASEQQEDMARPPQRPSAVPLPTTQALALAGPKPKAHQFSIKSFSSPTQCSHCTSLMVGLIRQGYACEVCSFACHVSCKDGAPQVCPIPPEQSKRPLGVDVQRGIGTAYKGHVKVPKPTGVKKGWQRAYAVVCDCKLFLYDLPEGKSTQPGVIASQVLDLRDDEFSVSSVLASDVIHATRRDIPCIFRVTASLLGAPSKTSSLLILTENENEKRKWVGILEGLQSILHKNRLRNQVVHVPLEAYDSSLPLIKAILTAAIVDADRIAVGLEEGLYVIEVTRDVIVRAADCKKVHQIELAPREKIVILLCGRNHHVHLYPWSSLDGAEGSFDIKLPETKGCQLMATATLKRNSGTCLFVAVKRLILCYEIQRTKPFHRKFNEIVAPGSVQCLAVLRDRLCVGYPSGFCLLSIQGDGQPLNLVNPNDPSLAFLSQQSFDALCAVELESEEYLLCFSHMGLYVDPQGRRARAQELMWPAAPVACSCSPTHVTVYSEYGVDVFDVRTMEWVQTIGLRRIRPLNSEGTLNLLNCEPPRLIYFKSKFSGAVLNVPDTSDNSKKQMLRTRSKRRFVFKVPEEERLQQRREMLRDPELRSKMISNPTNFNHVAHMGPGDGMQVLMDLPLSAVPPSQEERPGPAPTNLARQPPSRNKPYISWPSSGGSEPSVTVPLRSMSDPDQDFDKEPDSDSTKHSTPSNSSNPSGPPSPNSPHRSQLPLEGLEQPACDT
# G protein-coupled receptor kinase 5 (Homo sapiens), sequence (P34947 whole entry, looked up): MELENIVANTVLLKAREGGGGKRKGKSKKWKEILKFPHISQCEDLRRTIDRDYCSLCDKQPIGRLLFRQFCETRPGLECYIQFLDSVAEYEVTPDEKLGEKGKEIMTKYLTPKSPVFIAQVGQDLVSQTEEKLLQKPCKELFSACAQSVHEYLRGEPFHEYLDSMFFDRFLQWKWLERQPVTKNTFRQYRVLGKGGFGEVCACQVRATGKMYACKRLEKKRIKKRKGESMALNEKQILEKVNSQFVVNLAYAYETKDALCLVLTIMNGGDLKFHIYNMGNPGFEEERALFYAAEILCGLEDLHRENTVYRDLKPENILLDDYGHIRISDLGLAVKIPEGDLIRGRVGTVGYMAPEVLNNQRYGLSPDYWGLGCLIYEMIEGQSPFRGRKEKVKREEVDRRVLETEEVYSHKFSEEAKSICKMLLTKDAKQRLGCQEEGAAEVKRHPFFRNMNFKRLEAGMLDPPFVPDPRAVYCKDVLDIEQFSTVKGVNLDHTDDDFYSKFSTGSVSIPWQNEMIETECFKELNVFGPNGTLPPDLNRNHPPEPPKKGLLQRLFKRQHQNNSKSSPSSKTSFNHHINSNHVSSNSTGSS
# Serine/threonine-protein kinase WNK3 (Homo sapiens), sequence (Q9BYP7 whole entry): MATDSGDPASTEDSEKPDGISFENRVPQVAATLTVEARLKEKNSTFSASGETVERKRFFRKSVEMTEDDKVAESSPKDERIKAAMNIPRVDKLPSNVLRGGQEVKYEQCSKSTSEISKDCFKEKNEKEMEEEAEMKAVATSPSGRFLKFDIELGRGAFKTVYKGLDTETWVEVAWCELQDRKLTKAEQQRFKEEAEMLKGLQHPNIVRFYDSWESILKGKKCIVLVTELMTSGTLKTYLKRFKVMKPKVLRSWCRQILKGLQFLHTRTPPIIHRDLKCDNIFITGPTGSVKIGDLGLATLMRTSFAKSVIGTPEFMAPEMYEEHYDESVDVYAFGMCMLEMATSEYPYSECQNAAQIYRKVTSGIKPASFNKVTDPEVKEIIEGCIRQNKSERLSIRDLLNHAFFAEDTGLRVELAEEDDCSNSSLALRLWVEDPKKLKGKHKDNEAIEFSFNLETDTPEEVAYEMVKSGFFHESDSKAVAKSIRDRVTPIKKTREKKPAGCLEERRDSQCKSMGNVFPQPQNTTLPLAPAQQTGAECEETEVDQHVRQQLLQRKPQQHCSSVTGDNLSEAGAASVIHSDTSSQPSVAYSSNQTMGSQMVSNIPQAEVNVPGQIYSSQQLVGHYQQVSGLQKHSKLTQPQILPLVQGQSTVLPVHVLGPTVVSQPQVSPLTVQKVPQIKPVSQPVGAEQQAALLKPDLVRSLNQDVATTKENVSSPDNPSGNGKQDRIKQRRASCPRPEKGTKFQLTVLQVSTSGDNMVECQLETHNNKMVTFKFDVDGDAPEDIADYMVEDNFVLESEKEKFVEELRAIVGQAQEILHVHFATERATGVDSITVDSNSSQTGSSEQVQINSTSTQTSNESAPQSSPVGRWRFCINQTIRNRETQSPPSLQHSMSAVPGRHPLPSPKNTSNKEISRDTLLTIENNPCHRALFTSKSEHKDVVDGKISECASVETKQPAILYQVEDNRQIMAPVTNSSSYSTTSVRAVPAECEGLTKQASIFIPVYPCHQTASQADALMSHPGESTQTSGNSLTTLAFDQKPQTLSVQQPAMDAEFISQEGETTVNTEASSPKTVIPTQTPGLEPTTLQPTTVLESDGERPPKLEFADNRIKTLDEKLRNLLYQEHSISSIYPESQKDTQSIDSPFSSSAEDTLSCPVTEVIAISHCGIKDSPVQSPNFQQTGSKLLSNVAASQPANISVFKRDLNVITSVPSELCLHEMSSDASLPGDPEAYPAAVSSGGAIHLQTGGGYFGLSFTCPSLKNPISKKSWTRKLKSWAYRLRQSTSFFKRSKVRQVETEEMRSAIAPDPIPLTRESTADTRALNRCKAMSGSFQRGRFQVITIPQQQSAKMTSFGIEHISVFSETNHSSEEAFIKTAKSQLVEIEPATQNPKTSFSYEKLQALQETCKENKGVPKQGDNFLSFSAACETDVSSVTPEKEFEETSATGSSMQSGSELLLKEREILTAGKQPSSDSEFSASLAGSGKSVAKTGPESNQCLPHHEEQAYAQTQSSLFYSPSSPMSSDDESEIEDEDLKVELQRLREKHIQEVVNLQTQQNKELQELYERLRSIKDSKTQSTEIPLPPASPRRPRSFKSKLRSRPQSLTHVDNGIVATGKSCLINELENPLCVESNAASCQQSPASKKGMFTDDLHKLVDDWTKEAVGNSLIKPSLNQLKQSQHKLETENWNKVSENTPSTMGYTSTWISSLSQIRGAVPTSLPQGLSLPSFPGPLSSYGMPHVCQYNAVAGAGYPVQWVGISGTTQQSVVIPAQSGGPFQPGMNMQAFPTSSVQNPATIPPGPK
inhibition [2] [%],inhibition [3] [%],inhibition [4] [%],inhibition [5] [%],inhibition [6] [%],inhibition [7] [%],inhibition [8] [%],SMILES,inhibition [1] [%]
,,,,,,,Oc1n[nH]c2nnc(-c3c(-c4ccccc4)nn4ccccc34)cc12,-0.37
2.2,3.94,1.88,2.47,-4.49,3.37,5.87,C[C@@]1(C(=O)Nc2ccc(F)nc2)CCCN1c1nc(Nc2cc(C3CC3)n[nH]2)c2cccn2n1,
